Test results from EP3046573B1, “AMYLIN ANALOGUES” (Zealand Pharma A/S, priority 2013, dated 2015).
Read-outs that look alike come from different tables or passages of the source. Numbered stars: 1 amine (or outer) side, 2 acyl side, 3 side chain; on linkers, the order of the positions; unused ones are H or OH. Bridge positions count the residues as written; N and C are the ends. Square brackets hold non-standard residues; d marks the D form. Peptide text beside a SMILES is read from it. * marks the point of attachment. C20 diacid = O=C(O)CCCCCCCCCCCCCCCCCCC(=O)*; γGlu = O=C(O)[C@H](CCC(=O)[*:2])N[*:1]; NMeI = CC[C@H](C)[C@H](NC)C(=O)O; Dap = NC[C@H](N)C(=O)O; Sar = CNCC(=O)O

Key:
[1] = target: T1, human calcitonin receptor (hCTR2) (Homo sapiens, UniProt P30988); experiment: hCTR2 assay: induction of cAMP (AlphaScreen cAMP Assay kit) in COS7 cells expressing hCTR2; assay type: cell-based
T1 construct: expressed in transfected cells
T1 sequence (P30988 25-474): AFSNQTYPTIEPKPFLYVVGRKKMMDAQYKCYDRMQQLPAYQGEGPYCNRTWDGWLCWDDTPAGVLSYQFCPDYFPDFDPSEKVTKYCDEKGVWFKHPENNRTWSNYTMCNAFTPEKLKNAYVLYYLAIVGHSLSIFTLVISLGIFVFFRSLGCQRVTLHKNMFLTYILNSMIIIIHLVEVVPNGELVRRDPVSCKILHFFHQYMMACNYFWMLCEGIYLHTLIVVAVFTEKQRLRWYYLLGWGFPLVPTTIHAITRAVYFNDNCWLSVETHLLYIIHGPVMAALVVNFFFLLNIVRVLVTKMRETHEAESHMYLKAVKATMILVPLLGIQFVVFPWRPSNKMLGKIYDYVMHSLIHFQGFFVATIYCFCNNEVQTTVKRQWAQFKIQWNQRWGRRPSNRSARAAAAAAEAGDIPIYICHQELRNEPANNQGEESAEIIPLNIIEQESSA
How it was run: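 Stable RAMP-naive COS7 clone expressing hCTR2 was stimulated with increasing peptide concentrations in Tyrode buffer (pH 7.4) with 100 µM IBMX and 0.1% casein for 15 min at 37° C. Cells were lysed and cAMP measured by AlphaScreen. EC50 and efficacy relative to pramlintide came from 4PL curve fits.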

[2] = Solubility assessment (turbidity absorbance at 325 nm); assay type: physicochemical; conditions: stock 2 mg/ml diluted 1:1, ambient temperature (typically 25°C), n=1; for Solubility, Acetate buffer pH 4: 100 mM acetate buffer pH 4.0; for Solubility, Acetate buffer pH 5: 100 mM acetate buffer pH 5.0; for Solubility, Histidine buffer pH 6: 100 mM histidine buffer pH 6.0; for Solubility, Histidine buffer pH 7: 100 mM histidine buffer pH 7.0; for Solubility, Phosphate buffer pH 6: 100 mM phosphate buffer pH 6.0; for Solubility, Phosphate buffer pH 7: 100 mM phosphate buffer pH 7.0; for Solubility, Phosphate buffer pH 7.5: 100 mM phosphate buffer pH7.5
How it was run: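 Peptide stock (2 mg/ml, water pH 2.5) diluted 1:1 into 100 mM acetate (pH 4.0, 5.0), histidine (pH 6.0, 7.0) or phosphate (pH 6.0–7.5) buffer; absorbance at 325 nm read at about 25°C, n=1. A325 ≤ 0.02 taken as solubility ≥ 1 mg/ml.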

[3] = cAMP induction in COS7 cells expressing hCTR2, average of a minimum of 3 determinations, read-out: hCTR2 EC50

EC50 [1, 3] | Structure (SMILES) | EC50 [1] | Solubility, Acetate buffer pH 4 [2] | Solubility, Acetate buffer pH 5 [2] | Solubility, Histidine buffer pH 6 [2] | Solubility, Histidine buffer pH 7 [2] | Solubility, Phosphate buffer pH 6 [2] | Solubility, Phosphate buffer pH 7 [2] | Solubility, Phosphate buffer pH 7.5 [2]
– | CC[C@H](C)[C@@H](C(=O)N[C@@H](CC(C)C)C(=O)N[C@@H](CO)C(=O)N[C@@H](CO)C(=O)N[C@H](C(=O)N[C@@H](CC(N)=O)C(=O)N[C@H](C(=O)NCC(=O)N[C@@H](CO)C(=O)N[C@@H](CC(N)=O)C(=O)N[C@H](C(=O)N1CCC[C@H]1C(N)=O)[C@@H](C)O)C(C)C)[C@@H](C)O)N(C)C(=O)[C@H](C)NC(=O)CN(C)C(=O)[C@H](Cc1ccccc1)NC(=O)[C@H](CC(N)=O)NC(=O)[C@H](CC(N)=O)NC(=O)[C@H](CO)NC(=O)[C@H](CO)NC(=O)[C@H](Cc1c[nH]cn1)NC(=O)[C@H](Cc1c[nH]cn1)NC(=O)[C@H](CC(C)C)NC(=O)[C@H](Cc1ccccc1)NC(=O)[C@H](CCC(=O)O)NC(=O)[C@H](C)NC(=O)[C@H](CC(C)C)NC(=O)[C@H](CCCNC(=N)N)NC(=O)[C@H](CCC(N)=O)NC(=O)[C@@H](NC(=O)[C@H](C)NC(=O)[C@@H]1CSSC[C@H](NC(=O)[C@H](CN)NC(=O)CC[C@H](NC(=O)CCCCCCCCCCCCCCCCCCC(=O)O)C(=O)O)C(=O)N[C@@H](CC(N)=O)C(=O)N[C@@H]([C@@H](C)O)C(=O)N[C@@H](C)C(=O)N[C@@H]([C@@H](C)O)C(=O)N1)[C@@H](C)O [Compound 67, [19CD]-isoGlu-Dap-C()NTATC()ATQRLAEFLHHSSNNF-Gly(Me)-A-Ile(Me)-LSSTNVGSNTP-NH2] ({C20 diacid-γGlu}-[Dap]CNTATCATQRLAEFLHHSSNNF[Sar]A[NMeI]LSSTNVGSNTP-NH2; disulfide 2-7) | 190 pM | SS (SS indicates solubility ≥ 1mg/ml) | SS (SS indicates solubility ≥ 1mg/ml) | SS (SS indicates solubility ≥ 1mg/ml) | SS (SS indicates solubility ≥ 1mg/ml) | SS (SS indicates solubility ≥ 1mg/ml) | SS (SS indicates solubility ≥ 1mg/ml) | SS (SS indicates solubility ≥ 1mg/ml)
– | CC[C@H](C)[C@@H](C(=O)N[C@@H](CC(C)C)C(=O)N[C@H](CO)C(=O)N[C@@H](CO)C(=O)N[C@H](C(=O)N[C@@H](CC(N)=O)C(=O)N[C@H](C(=O)NCC(=O)N[C@@H](CO)C(=O)N[C@@H](CC(N)=O)C(=O)N[C@H](C(=O)N1CCC[C@H]1C(N)=O)[C@@H](C)O)C(C)C)[C@@H](C)O)N(C)C(=O)[C@H](C)NC(=O)CN(C)C(=O)[C@H](Cc1ccccc1)NC(=O)[C@H](CC(N)=O)NC(=O)[C@H](CC(N)=O)NC(=O)[C@H](CO)NC(=O)[C@H](CO)NC(=O)[C@H](CCCNC(=N)N)NC(=O)[C@H](Cc1c[nH]cn1)NC(=O)[C@H](CC(C)C)NC(=O)[C@H](Cc1ccccc1)NC(=O)[C@H](CCC(=O)O)NC(=O)[C@H](C)NC(=O)[C@H](CC(C)C)NC(=O)[C@H](CCCNC(=N)N)NC(=O)[C@H](CCC(N)=O)NC(=O)[C@@H](NC(=O)[C@H](C)NC(=O)[C@@H]1CSSC[C@H](NC(=O)[C@H](CCCCN)NC(=O)CC[C@H](NC(=O)CCCCCCCCCCCCCCCCCCC(=O)O)C(=O)O)C(=O)N[C@@H](CC(N)=O)C(=O)N[C@@H]([C@@H](C)O)C(=O)N[C@@H](C)C(=O)N[C@@H]([C@@H](C)O)C(=O)N1)[C@@H](C)O [Compound 68, [19CD]-isoGlu-KC()NTATC()ATQRLAEFLHRSSNNF-Gly(Me)-A-Ile(Me)-L-DSer-STNVGSNTP-NH2] ({C20 diacid-γGlu}-KCNTATCATQRLAEFLHRSSNNF[Sar]A[NMeI]L[dS]STNVGSNTP-NH2; disulfide 2-7) | 96 pM | SS (SS indicates solubility ≥ 1mg/ml) | SS (SS indicates solubility ≥ 1mg/ml) | SS (SS indicates solubility ≥ 1mg/ml) | SS (SS indicates solubility ≥ 1mg/ml) | SS (SS indicates solubility ≥ 1mg/ml) | SS (SS indicates solubility ≥ 1mg/ml) | SS (SS indicates solubility ≥ 1mg/ml)
240 pM | CC[C@H](C)[C@@H](C(=O)N[C@@H](CC(C)C)C(=O)N[C@@H](CO)C(=O)N[C@@H](CO)C(=O)N[C@H](C(=O)N[C@@H](CC(N)=O)C(=O)N[C@H](C(=O)NCC(=O)N[C@@H](CO)C(=O)N[C@@H](CC(N)=O)C(=O)N[C@H](C(=O)N1CCC[C@H]1C(N)=O)[C@@H](C)O)C(C)C)[C@@H](C)O)N(C)C(=O)CN(C)C(=O)[C@H](Cc1ccccc1)NC(=O)[C@H](CC(N)=O)NC(=O)[C@H](CC(N)=O)NC(=O)[C@H](CO)NC(=O)[C@H](CO)NC(=O)[C@H](Cc1c[nH]cn1)NC(=O)[C@H](Cc1c[nH]cn1)NC(=O)[C@H](CC(C)C)NC(=O)[C@H](Cc1ccccc1)NC(=O)[C@H](CCC(=O)O)NC(=O)[C@H](C)NC(=O)[C@H](CC(C)C)NC(=O)[C@H](CCCNC(=N)N)NC(=O)[C@H](CCC(N)=O)NC(=O)[C@@H](NC(=O)[C@H](C)NC(=O)[C@@H]1CSSC[C@H](NC(=O)[C@H](CN)NC(=O)CC[C@H](NC(=O)CCCCCCCCCCCCCCCCCCC(=O)O)C(=O)O)C(=O)N[C@@H](CC(N)=O)C(=O)N[C@@H]([C@@H](C)O)C(=O)N[C@@H](C)C(=O)N[C@@H]([C@@H](C)O)C(=O)N1)[C@@H](C)O [Compound 69, [19CD]-isoGlu-Dap-C()NTATC()ATQRLAEFLHHSSNNF-Gly(Me)-Ile(Me)-LSSTNVGSNTP-NH2] ({C20 diacid-γGlu}-[Dap]CNTATCATQRLAEFLHHSSNNF[Sar][NMeI]LSSTNVGSNTP-NH2; disulfide 2-7) | – | SS (SS indicates solubility ≥ 1mg/ml) | SS (SS indicates solubility ≥ 1mg/ml) | SS (SS indicates solubility ≥ 1mg/ml) | SS (SS indicates solubility ≥ 1mg/ml) | SS (SS indicates solubility ≥ 1mg/ml) | SS (SS indicates solubility ≥ 1mg/ml) | SS (SS indicates solubility ≥ 1mg/ml)
110 pM | CC[C@H](C)[C@@H](C(=O)N[C@@H](CC(C)C)C(=O)N[C@H](CO)C(=O)N[C@@H](CO)C(=O)N[C@H](C(=O)N[C@@H](CC(N)=O)C(=O)N[C@H](C(=O)NCC(=O)N[C@@H](CO)C(=O)N[C@@H](CC(N)=O)C(=O)N[C@H](C(=O)N1CCC[C@H]1C(N)=O)[C@@H](C)O)C(C)C)[C@@H](C)O)N(C)C(=O)CN(C)C(=O)[C@H](Cc1ccccc1)NC(=O)[C@H](CC(N)=O)NC(=O)[C@H](CC(N)=O)NC(=O)[C@H](CO)NC(=O)[C@H](CO)NC(=O)[C@H](CCCNC(=N)N)NC(=O)[C@H](Cc1c[nH]cn1)NC(=O)[C@H](CC(C)C)NC(=O)[C@H](Cc1ccccc1)NC(=O)[C@H](CCC(=O)O)NC(=O)[C@H](C)NC(=O)[C@H](CC(C)C)NC(=O)[C@H](CCCNC(=N)N)NC(=O)[C@H](CCC(N)=O)NC(=O)[C@@H](NC(=O)[C@H](C)NC(=O)[C@@H]1CSSC[C@H](NC(=O)[C@H](CCCCN)NC(=O)CC[C@H](NC(=O)CCCCCCCCCCCCCCCCCCC(=O)O)C(=O)O)C(=O)N[C@@H](CC(N)=O)C(=O)N[C@@H]([C@@H](C)O)C(=O)N[C@@H](C)C(=O)N[C@@H]([C@@H](C)O)C(=O)N1)[C@@H](C)O [Compound 70, [19CD]-isoGlu-KC()NTATC()ATQRLAEFLHRSSNNF-Gly(Me)-Ile(Me)-L-DSer-STNVGSNTP-NH2] ({C20 diacid-γGlu}-KCNTATCATQRLAEFLHRSSNNF[Sar][NMeI]L[dS]STNVGSNTP-NH2; disulfide 2-7) | – | SS (SS indicates solubility ≥ 1mg/ml) | SS (SS indicates solubility ≥ 1mg/ml) | SS (SS indicates solubility ≥ 1mg/ml) | SS (SS indicates solubility ≥ 1mg/ml) | SS (SS indicates solubility ≥ 1mg/ml) | SS (SS indicates solubility ≥ 1mg/ml) | SS (SS indicates solubility ≥ 1mg/ml)
